From patent US9364482B2, “Substituted benzofuran compounds and methods of use thereof for the treatment of viral diseases” (priority 2013, dated 2016)
Read-outs that look alike come from different tables or passages of the source.

Columns and labels:
HCV replicon genotype 1a = test: microbe, parasite or virus in culture; format: cell-based, hepatitis C virus (HCV)
HCV replicon genotype 1b = test: microbe, parasite or virus in culture; format: cell-based, hepatitis C virus (HCV)
[1] = Hepatitis C virus, 96 h, read-out: 1a IC50 (nM)
[2] = Hepatitis C virus, 96 h, read-out: 1b IC50 (nM)

| Structure (SMILES) | IC50 (HCV replicon genotype 1a; [1]) [nM] | IC50 (HCV replicon genotype 1b; [2]) [nM] | IC50 (HCV replicon genotype 1a; read-out: 1a IC50) [nM] | IC50 (HCV replicon genotype 1b; read-out: 1b IC50) [nM] |
| --- | --- | --- | --- | --- |
| CNC(=O)c1c(-c2ccc(F)cc2)oc2cc(N(C)S(C)(=O)=O)c(-c3ccc4c(n3)C(=O)N(Cc3ccccc3)CO4)cc12 [Compound 1, 5-(3-benzyl-4-oxo-3,4-dihydro-2H-pyrido[2,3-e][1,3]oxazin-6-yl)-2-(4-fluorophenyl)-N-methyl-6-(N-methylmethylsulfonamido)benzofuran-3-carboxamide] | 3.22 | 2.44 | – | – |
| CNC(=O)c1c(-c2ccc(F)cc2)oc2cc(N(C)S(C)(=O)=O)c(-c3ccc4c(n3)C(=O)N(c3ccc(F)cc3)CO4)cc12 [Compound 2] | 24.8 | 3.34 | – | – |
| CNC(=O)c1c(-c2ccc(F)cc2)oc2cc(N(C)S(C)(=O)=O)c(-c3ccc4c(n3)C(=O)N(c3cccc(F)c3)CO4)cc12 [Compound 3] | 4.83 | 2.84 | – | – |
| CNC(=O)c1c(-c2ccc(F)cc2)oc2cc(N(C)S(C)(=O)=O)c(-c3ccc4c(n3)C(=O)N(CCc3ccccc3)CO4)cc12 [Compound 4] | 39.9 | 15.2 | – | – |
| CNC(=O)c1c(-c2ccc(F)cc2)oc2cc(N(C)S(C)(=O)=O)c(-c3ccc4c(n3)C(=O)N(Cc3ccc(OC)cc3)CO4)cc12 [Compound 5] | 3.06 | 1.59 | – | – |
| CNC(=O)c1c(-c2ccc(F)cc2)oc2cc(N(C)S(C)(=O)=O)c(-c3ccc4c(n3)C(=O)N(Cc3cccc(F)c3)CO4)cc12 [Compound 7] | 1.48 | 1.06 | – | – |
| CNC(=O)c1c(-c2ccc(F)cc2)oc2cc(N(C)S(C)(=O)=O)c(-c3ccc4c(n3)C(=O)N(Cc3ccccc3F)CO4)cc12 [Compound 8] | 5.87 | 2.62 | – | – |
| CNC(=O)c1c(-c2ccc(F)cc2)oc2cc(N(C)S(C)(=O)=O)c(-c3ccc4c(n3)C(=O)N(Cc3ccc(C#N)cc3)CO4)cc12 [Compound 9] | 8.03 | 3.91 | – | – |
| CNC(=O)c1c(-c2ccc(F)cc2)oc2cc(N(C)S(C)(=O)=O)c(-c3ccc4c(n3)C(=O)N(Cc3ccc(F)cn3)CO4)cc12 [Compound 11, 2-(4-fluorophenyl)-5-(3-((5-fluoropyridin-2-yl)methyl)-4-oxo-3,4-dihydro-2H-pyrido[2,3-e][1,3]oxazin-6-yl)-N-methyl-6-(N-methylmethylsulfonamido)benzofuran-3-carboxamide] | 15.3 | 7.68 | – | – |
| CNC(=O)c1c(-c2ccc(F)cc2)oc2cc(N(C)S(C)(=O)=O)c(-c3ccc4oc(=O)n(Cc5ccc(F)cc5)c(=O)c4n3)cc12 [Compound 14, 5-(3-(4-fluorobenzyl)-2,4-dioxo-3,4-dihydro-2H-pyrido[2,3-e][1,3]oxazin-6-yl)-2-(4-fluorophenyl)-N-methyl-6-(N-methylmethylsulfonamido)benzofuran-3-carboxamide] | 435 | 35.9 | – | – |
| CNC(=O)c1c(-c2ccc(F)cc2)oc2cc(N(C)S(C)(=O)=O)c(-c3cnc4c(c3)C(=O)NC(C3CC3)N4)cc12 (stereo not shown) [Compound 16] | 128 | 39.2 | – | – |
| CNC(=O)c1c(-c2ccc(F)cc2)oc2cc(N(C)S(C)(=O)=O)c(-c3cnc4ncn(-c5ccc(F)cc5)c(=O)c4c3)cc12 [Compound 22] | 16.2 | 4.12 | – | – |
| CNC(=O)c1c(-c2ccc(F)cc2)oc2cc(N(C)S(C)(=O)=O)c(-c3cnc4ncn(-c5cccc(F)c5)c(=O)c4c3)cc12 [Compound 23] | 3.98 | 3.24 | – | – |
| CNC(=O)c1c(-c2ccc(F)cc2)oc2cc(N(C)S(C)(=O)=O)c(-c3cnc4ncn(Cc5ccc(F)cc5)c(=O)c4c3)cc12 [Compound 24] | 2.59 | 2.57 | – | – |
| CNC(=O)c1c(-c2ccc(F)cc2)oc2cc(N(C)S(C)(=O)=O)c(-c3cnc4ncn([C@H](C)c5ccc(F)cc5)c(=O)c4c3)cc12 [Compound 25] | 16.3 | 11.9 | – | – |
| CNC(=O)c1c(-c2ccc(F)cc2)oc2cc(N(C)S(C)(=O)=O)c(-c3ccc4c(n3)C(=O)N([C@H](C)c3ccc(F)cc3)CO4)cc12 [Compound 30, (R)-2-(4-fluorophenyl)-5-(3-(1-(4-fluorophenyl)ethyl)-4-oxo-3,4-dihydro-2H-pyrido[2,3-e][1,3]oxazin-6-yl)-N-methyl-6-(N-methylmethylsulfonamido)benzofuran-3-carboxamide] | – | – | 0.981 | 2.23 |
| CNC(=O)c1c(-c2ccc(F)cc2)oc2cc(N(C)S(C)(=O)=O)c(-c3ccc4c(n3)C(=O)N([C@@H](C)c3ccc(F)cc3)CO4)cc12 [Compound 31, (S)-2-(4-fluorophenyl)-5-(3-(1-(4-fluorophenyl)ethyl)-4-oxo-3,4-dihydro-2H-pyrido[2,3-e][1,3]oxazin-6-yl)-N-methyl-6-(N-methylmethylsulfonamido)benzofuran-3-carboxamide] | – | – | 41.8 | 12.5 |
| CNC(=O)c1c(-c2ccc(F)cc2)oc2ccc(-c3ccc4c(n3)C(=O)N(C(C)(C)c3ccc(F)cc3)CO4)cc12 [Compound 33, 2-(4-fluorophenyl)-5-(3-(2-(4-fluorophenyl)propan-2-yl)-4-oxo-3,4-dihydro-2H-pyrido[2,3-e][1,3]oxazin-6-yl)-N-methylbenzofuran-3-carboxamide] | 708 | 1690 | – | – |
| CNC(=O)c1c(-c2ccc(F)cc2)oc2ccc(-c3ccc4c(n3)C(=O)N(Cc3ccc(F)cc3)CO4)cc12 [Compound 34, 5-(3-(4-fluorobenzyl)-4-oxo-3,4-dihydro-2H-pyrido[2,3-e][1,3]oxazin-6-yl)-2-(4-fluorophenyl)-N-methylbenzofuran-3-carboxamide] | 8930 | 10400 | – | – |
| CNC(=O)c1c(-c2ccc(F)cc2)oc2cc(N(C)S(C)(=O)=O)c(-c3ccc4c(n3)C(=O)N(Cc3ccc(F)cc3)CC4)cc12 [Compound 36, 5-(7-(4-fluorobenzyl)-8-oxo-5,6,7,8-tetrahydro-1,7-naphthyridin-2-yl)-2-(4-fluorophenyl)-N-methyl-6-(N-methylmethylsulfonamido)benzofuran-3-carboxamide] | 1.08 | 0.527 | – | – |
| CNC(=O)c1c(-c2ccc(F)cc2)oc2ccc(-c3ccc4c(n3)C(=O)N(Cc3ccc(F)cc3)CC4)cc12 [Compound 37, 5-(7-(4-fluorobenzyl)-8-oxo-5,6,7,8-tetrahydro-1,7-naphthyridin-2-yl)-2-(4-fluorophenyl)-N-methylbenzofuran-3-carboxamide] | 77.3 | 11.4 | – | – |
| CNC(=O)c1c(-c2ccc(F)cc2)oc2cc(N(C)S(C)(=O)=O)c(-c3ccc4nnn([C@H](COC)c5ccc(F)cc5)c(=O)c4c3)cc12 [Compound 39, (S)-2-(4-fluorophenyl)-5-(3-(1-(4-fluorophenyl)-2-methoxyethyl)-4-oxo-3,4-dihydrobenzo[d][1,2,3]triazin-6-yl)-N-methyl-6-(N-methylmethylsulfonamido)benzofuran-3-carboxamide] | 4.04 | 9.27 | – | – |
| CNC(=O)c1c(-c2ccc(F)cc2)oc2cc(N(C)S(C)(=O)=O)c(-c3ccc4nnn([C@H](CO)c5ccc(F)cc5)c(=O)c4c3)cc12 [Compound 40, 2-(4-fluorophenyl)-5-{3-[(1S)-1-(4-fluorophenyl)-2-hydroxyethyl]-4-oxo-3,4-dihydro-1,2,3-benzotriazin-6-yl}-N-methyl-6-[methyl(methylsulfonyl)amino]-1-benzofuran-3-carboxamide] | 6.19 | 9.03 | – | – |
| CNC(=O)c1c(-c2ccc(F)cc2)oc2cc(N(C)S(C)(=O)=O)c(-c3ccc4nnn([C@@H](COC)c5ccc(F)cc5)c(=O)c4c3)cc12 [Compound 41, 2-(4-fluorophenyl)-5-{3-[(1R)-1-(4-fluorophenyl)-2-methoxyethyl]-4-oxo-3,4-dihydro-1,2,3-benzotriazin-6-yl}-N-methyl-6-[methyl(methylsulfonyl)amino]-1-benzofuran-3-carboxamide] | 18.1 | 16.2 | – | – |
| CNC(=O)c1c(-c2ccc(F)cc2)oc2cc(N(C)S(C)(=O)=O)c(-c3ccc4nnn(Cc5ccccc5)c(=O)c4c3)cc12 [Compound 42, 5-(3-benzyl-4-oxo-3,4-dihydro-1,2,3-benzotriazin-6-yl)-2-(4-fluorophenyl)-N-methyl-6-[methyl(methylsulfonyl)amino]-1-benzofuran-3-carboxamide] | 9.48 | 9.55 | – | – |
| CNC(=O)c1c(-c2ccc(F)cc2)oc2cc(N(C)S(C)(=O)=O)c(-c3ccc4nnn(C(CO)c5ccccc5)c(=O)c4c3)cc12 (stereo not shown) [Compound 43, 2-(4-fluorophenyl)-5-[3-(2-hydroxy-1-phenylethyl)-4-oxo-3,4-dihydro-1,2,3-benzotriazin-6-yl]-N-methyl-6-[methyl(methylsulfonyl)amino]-1-benzofuran-3-carboxamide] | 15.1 | 9.66 | – | – |
| CNC(=O)c1c(-c2ccc(F)cc2)oc2cc(N(C)S(C)(=O)=O)c(-c3ccc4nnn(Cc5ccc(F)cc5)c(=O)c4c3)cc12 [Compound 44, 5-[3-(4-fluorobenzyl)-4-oxo-3,4-dihydro-1,2,3-benzotriazin-6-yl]-2-(4-fluorophenyl)-N-methyl-6-[methyl(methylsulfonyl)amino]-1-benzofuran-3-carboxamide] | 5.62 | 10.5 | – | – |
| CNC(=O)c1c(-c2ccc(F)cc2)oc2cc(N(C)S(C)(=O)=O)c(-c3ccc4nnn([C@@H](C)c5ccc(F)cc5)c(=O)c4c3)cc12 [Compound 45, 2-(4-fluorophenyl)-5-{3-[(1S)-1-(4-fluorophenyl)ethyl]-4-oxo-3,4-dihydro-1,2,3-benzotriazin-6-yl}-N-methyl-6-[methyl(methylsulfonyl)amino]-1-benzofuran-3-carboxamide] | 35 | 17.5 | – | – |
| CNC(=O)c1c(-c2ccc(F)cc2)oc2cc(N(C)S(C)(=O)=O)c(-c3ccc4nnn([C@H](C)c5ccc(F)cc5)c(=O)c4c3)cc12 [Compound 46, 2-(4-fluorophenyl)-5-{3-[(1R)-1-(4-fluorophenyl)ethyl]-4-oxo-3,4-dihydro-1,2,3-benzotriazin-6-yl}-N-methyl-6-[methyl(methylsulfonyl)amino]-1-benzofuran-3-carboxamide] | 7.65 | 10.2 | – | – |
